Assay results as given in PubChem BioAssay AID1963826 (Molecular Pharmacology Branch, DTP, NCI, 2024).

Test system: 926638-142-R-J1-PDC complex spheroid viability
Experiment: Anticancer human tumor 926638-142-R-J1-PDC patient-derived endometrial carcinoma cell line growth inhibition [POLQ]
Settings: for IC50: curve of first compound; for viability, T/C: stronger effect = lower value
Procedure, shortened: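 Complex spheroid viability model combining PDC tumour cells with endothelial (HUVEC) and MSC stromal cells. Novobiocin, ART-558 or RP6685 were tested singly and in combination with standard and investigational anticancer drugs. Each was titrated in half-log steps from near clinical Cmax, or from 10 microM where Cmax was unknown.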

[1] = second compound 0.0316 µM, first compound 0.0316 µM
[2] = second compound 0.0316 µM, first compound 0.1 µM
[3] = second compound 0.0316 µM, first compound 0.316 µM
[4] = second compound 0.0316 µM, first compound 1 µM
[5] = second compound 0.0316 µM, first compound 3.16 µM
[6] = second compound 0.0316 µM, first compound 10 µM
[7] = second compound 0.1 µM, first compound 0.0316 µM
[8] = second compound 0.1 µM, first compound 0.1 µM
[9] = second compound 0.1 µM, first compound 0.316 µM
[10] = second compound 0.1 µM, first compound 1 µM
[11] = second compound 0.1 µM, first compound 3.16 µM
[12] = second compound 0.1 µM, first compound 10 µM
[13] = second compound 0.316 µM, first compound 0.0316 µM
[14] = second compound 0.316 µM, first compound 0.1 µM
[15] = second compound 0.316 µM, first compound 0.316 µM
[16] = second compound 0.316 µM, first compound 1 µM
[17] = second compound 0.316 µM, first compound 3.16 µM
[18] = second compound 0.316 µM, first compound 10 µM
[19] = second compound 1 µM, first compound 0.0316 µM
[20] = second compound 1 µM, first compound 0.1 µM
[21] = second compound 1 µM, first compound 0.316 µM
[22] = second compound 1 µM, first compound 1 µM
[23] = second compound 1 µM, first compound 3.16 µM
[24] = second compound 1 µM, first compound 10 µM
[25] = second compound 3.16 µM, first compound 0.0316 µM
[26] = second compound 3.16 µM, first compound 0.1 µM
[27] = second compound 3.16 µM, first compound 0.316 µM
[28] = second compound 3.16 µM, first compound 1 µM
[29] = second compound 3.16 µM, first compound 3.16 µM
[30] = second compound 3.16 µM, first compound 10 µM
[31] = second compound 10 µM, first compound 0.0316 µM
[32] = second compound 10 µM, first compound 0.1 µM
[33] = second compound 10 µM, first compound 0.316 µM
[34] = second compound 10 µM, first compound 1 µM
[35] = second compound 10 µM, first compound 3.16 µM
[36] = second compound 10 µM, first compound 10 µM
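Also: spheroids exposed to drugs for one week before readout.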
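For viability, T/C in this document: percent viability relative to DMSO vehicle control wells set as 100%.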

SMILES: C=CC(=O)N1CCN(c2nc(=O)n(-c3c(C)ccnc3C(C)C)c3nc(-c4c(O)cccc4F)c(F)cc23)C(C)C1 (stereo not given) + Cc1cccc(N(C)C(=O)C2C(O)CCN2c2nc(C)cc(C(F)(F)F)c2C#N)c1
- IC50 (second compound 0.0316 µM): > 10000 nM
- IC50 (second compound 0.1 µM): > 10000 nM
- IC50 (second compound 0.316 µM): > 10000 nM
- IC50 (second compound 1 µM): > 10000 nM
- IC50 (second compound 3.16 µM): 6590 nM
- IC50 (second compound 10 µM): > 10000 nM
- viability, T/C [1]: 84.5%
- viability, T/C [2]: 78%
- viability, T/C [3]: 67.2%
- viability, T/C [4]: 76.1%
- viability, T/C [5]: 66%
- viability, T/C [6]: 59.1%
- viability, T/C [7]: 82.8%
- viability, T/C [8]: 78.7%
- viability, T/C [9]: 94%
- viability, T/C [10]: 76.6%
- viability, T/C [11]: 70.8%
- viability, T/C [12]: 65.5%
- viability, T/C [13]: 97.4%
- viability, T/C [14]: 90.3%
- viability, T/C [15]: 91.5%
- viability, T/C [16]: 74.2%
- viability, T/C [17]: 70%
- viability, T/C [18]: 55.6%
- viability, T/C [19]: 74.8%
- viability, T/C [20]: 84.7%
- viability, T/C [21]: 79.2%
- viability, T/C [22]: 69.9%
- viability, T/C [23]: 72.7%
- viability, T/C [24]: 49.6%
- viability, T/C [25]: 91.8%
- viability, T/C [26]: 82.7%
- viability, T/C [27]: 84.7%
- viability, T/C [28]: 86%
- viability, T/C [29]: 74.1%
- viability, T/C [30]: 36.1%
- viability, T/C [31]: 90.7%
- viability, T/C [32]: 80.8%
- viability, T/C [33]: 94.9%
- viability, T/C [34]: 77%
- viability, T/C [35]: 78%
- viability, T/C [36]: 52.9%

SMILES: CC1COCCN1c1cc(C2(O)CC3CCC(C2)O3)c2cnn(-c3ccn[nH]3)c2n1 (stereo not given) + Cc1cccc(N(C)C(=O)C2C(O)CCN2c2nc(C)cc(C(F)(F)F)c2C#N)c1
- IC50 (second compound 0.0316 µM): 173 nM
- IC50 (second compound 0.1 µM): 220 nM
- IC50 (second compound 0.316 µM): 194 nM
- IC50 (second compound 1 µM): 201 nM
- IC50 (second compound 3.16 µM): 143 nM
- IC50 (second compound 10 µM): 198 nM
- viability, T/C [1]: 102%
- viability, T/C [2]: 64.7%
- viability, T/C [3]: 34.5%
- viability, T/C [4]: 13.3%
- viability, T/C [5]: 8.43%
- viability, T/C [6]: 2.27%
- viability, T/C [7]: 100%
- viability, T/C [8]: 79.8%
- viability, T/C [9]: 35.8%
- viability, T/C [10]: 12.2%
- viability, T/C [11]: 6.79%
- viability, T/C [12]: 1.49%
- viability, T/C [13]: 88.7%
- viability, T/C [14]: 67.5%
- viability, T/C [15]: 37.9%
- viability, T/C [16]: 11.6%
- viability, T/C [17]: 9.91%
- viability, T/C [18]: 1.44%
- viability, T/C [19]: 85.7%
- viability, T/C [20]: 71%
- viability, T/C [21]: 35.8%
- viability, T/C [22]: 14%
- viability, T/C [23]: 7.71%
- viability, T/C [24]: 1.6%
- viability, T/C [25]: 85.9%
- viability, T/C [26]: 61%
- viability, T/C [27]: 26.1%
- viability, T/C [28]: 13.9%
- viability, T/C [29]: 7.14%
- viability, T/C [30]: 1.53%
- viability, T/C [31]: 97.7%
- viability, T/C [32]: 72.9%
- viability, T/C [33]: 33.5%
- viability, T/C [34]: 13.2%
- viability, T/C [35]: 6.57%
- viability, T/C [36]: 1.3%

SMILES: CCc1cc2c(N3CCc4c(cc(Cn5ccnc5)cc4-c4cn(C)nc4C(F)(F)F)C3=O)ccnc2c(OC)n1 + Cc1cccc(N(C)C(=O)C2C(O)CCN2c2nc(C)cc(C(F)(F)F)c2C#N)c1
- IC50 (second compound 0.0316 µM): 287 nM
- IC50 (second compound 0.1 µM): 356 nM
- IC50 (second compound 0.316 µM): 1290 nM
- IC50 (second compound 1 µM): 346 nM
- IC50 (second compound 3.16 µM): 483 nM
- IC50 (second compound 10 µM): 379 nM
- viability, T/C [1]: 76.8%
- viability, T/C [2]: 74.5%
- viability, T/C [3]: 46.7%
- viability, T/C [4]: 44.8%
- viability, T/C [5]: 38.6%
- viability, T/C [6]: 29.6%
- viability, T/C [7]: 112%
- viability, T/C [8]: 70.1%
- viability, T/C [9]: 48.3%
- viability, T/C [10]: 45.5%
- viability, T/C [11]: 41.8%
- viability, T/C [12]: 29.1%
- viability, T/C [13]: 70.8%
- viability, T/C [14]: 66.1%
- viability, T/C [15]: 59%
- viability, T/C [16]: 55%
- viability, T/C [17]: 40%
- viability, T/C [18]: 26.7%
- viability, T/C [19]: 83.4%
- viability, T/C [20]: 59.4%
- viability, T/C [21]: 47%
- viability, T/C [22]: 52.7%
- viability, T/C [23]: 37.3%
- viability, T/C [24]: 33%
- viability, T/C [25]: 87.1%
- viability, T/C [26]: 70.9%
- viability, T/C [27]: 55.5%
- viability, T/C [28]: 40.9%
- viability, T/C [29]: 32.1%
- viability, T/C [30]: 25.7%
- viability, T/C [31]: 85.9%
- viability, T/C [32]: 59.4%
- viability, T/C [33]: 58.4%
- viability, T/C [34]: 36.7%
- viability, T/C [35]: 34.2%
- viability, T/C [36]: 23.6%

SMILES: COc1cc2cc(C(=O)CCC(=O)O)sc2cc1OC + Cc1cccc(N(C)C(=O)C2C(O)CCN2c2nc(C)cc(C(F)(F)F)c2C#N)c1
- IC50 (second compound 0.0316 µM): > 10000 nM
- IC50 (second compound 0.1 µM): > 10000 nM
- IC50 (second compound 0.316 µM): > 10000 nM
- IC50 (second compound 1 µM): > 10000 nM
- IC50 (second compound 3.16 µM): > 10000 nM
- IC50 (second compound 10 µM): > 10000 nM
- viability, T/C [1]: 101%
- viability, T/C [2]: 92.9%
- viability, T/C [3]: 110%
- viability, T/C [4]: 96.2%
- viability, T/C [5]: 98.3%
- viability, T/C [6]: 77.4%
- viability, T/C [7]: 104%
- viability, T/C [8]: 98.4%
- viability, T/C [9]: 99.7%
- viability, T/C [10]: 87.1%
- viability, T/C [11]: 83.2%
- viability, T/C [12]: 80.3%
- viability, T/C [13]: 119%
- viability, T/C [14]: 115%
- viability, T/C [15]: 109%
- viability, T/C [16]: 84.4%
- viability, T/C [17]: 98.2%
- viability, T/C [18]: 88.7%
- viability, T/C [19]: 99.8%
- viability, T/C [20]: 111%
- viability, T/C [21]: 76.9%
- viability, T/C [22]: 85.8%
- viability, T/C [23]: 94%
- viability, T/C [24]: 90.1%
- viability, T/C [25]: 79.5%
- viability, T/C [26]: 95.5%
- viability, T/C [27]: 99.5%
- viability, T/C [28]: 76.5%
- viability, T/C [29]: 110%
- viability, T/C [30]: 94.6%
- viability, T/C [31]: 79.5%
- viability, T/C [32]: 95.7%
- viability, T/C [33]: 94.5%
- viability, T/C [34]: 87.2%
- viability, T/C [35]: 104%
- viability, T/C [36]: 79.9%

SMILES: O=C(Nc1ccc(O)c(NS(=O)(=O)c2ccc(F)cc2)c1)c1ccc(-c2ccccc2)cc1 + Cc1cccc(N(C)C(=O)C2C(O)CCN2c2nc(C)cc(C(F)(F)F)c2C#N)c1
- IC50 (second compound 0.0316 µM): > 10000 nM
- IC50 (second compound 0.1 µM): > 10000 nM
- IC50 (second compound 0.316 µM): > 10000 nM
- IC50 (second compound 1 µM): > 10000 nM
- IC50 (second compound 3.16 µM): > 10000 nM
- IC50 (second compound 10 µM): > 10000 nM
- viability, T/C [1]: 93.9%
- viability, T/C [2]: 93.2%
- viability, T/C [3]: 91.6%
- viability, T/C [4]: 91%
- viability, T/C [5]: 90.5%
- viability, T/C [6]: 62.5%
- viability, T/C [7]: 104%
- viability, T/C [8]: 78.6%
- viability, T/C [9]: 81.2%
- viability, T/C [10]: 94%
- viability, T/C [11]: 90.1%
- viability, T/C [12]: 62.5%
- viability, T/C [13]: 94.3%
- viability, T/C [14]: 105%
- viability, T/C [15]: 86.6%
- viability, T/C [16]: 87.8%
- viability, T/C [17]: 94.5%
- viability, T/C [18]: 67.2%
- viability, T/C [19]: 90.3%
- viability, T/C [20]: 94.8%
- viability, T/C [21]: 88.1%
- viability, T/C [22]: 96.9%
- viability, T/C [23]: 85.6%
- viability, T/C [24]: 73.1%
- viability, T/C [25]: 79.6%
- viability, T/C [26]: 91.5%
- viability, T/C [27]: 82.1%
- viability, T/C [28]: 97.6%
- viability, T/C [29]: 95.7%
- viability, T/C [30]: 68.5%
- viability, T/C [31]: 79.1%
- viability, T/C [32]: 75.8%
- viability, T/C [33]: 74.6%
- viability, T/C [34]: 78.7%
- viability, T/C [35]: 80.7%
- viability, T/C [36]: 55.7%
